Laboratory results: patent US20230405151A1, “USE OF IRAK4 MODULATORS FOR GENE THERAPY” (Genzyme Corporation, priority 2022, published 2023)

System: C57BL/6J mice injected with AAV (LacZ transgene)
Assay: In vivo mouse AAV model: CD8 TEM and lacZ tetramer staining of PBMCs and splenocytes
Details: chow 100 mg/kg from 15 days prior to AAV, versus AAV group
Description: In-vivo mice experiments. C57BL/6J mice were purchased from Jackson Laboratories. 6-8-week male mice were divided into 3 groups—PBS group, AAV group and AAV+IRAK4 group all groups with 10 mice each. Zimlovisertib IRAK4 inhibitor (Synonyms: PF-06650833) Cat. No.: HY-19836 (MedChemExpress) was mixed with mouse chow Catalog #2016, Teklad Global 16% Protein Rodent Diets https://www.inotivco.com/rodent-natural-ingredient-2016-diets at a dose of 30 mg/kg. AAV+IRAK4 group was fed the chow with Zimlovisertib IRAK4 inhibitor 15 days prior to AAV injection whereas PBS and AAV group were fed with mouse chow Catalog #2016, Teklad Global 16% Protein Rodent Diets https://www.inotivco.com/rodent-natural-ingredient-2016-diets. PBS group mice were injected intramuscularly with 100 ul PBS, AAV group was injected intramuscularly with 1e11 vg per quadricep muscle of both legs, 100 ul volume.
The same experiment design was followed with n=6 mice in each group PBS group, AAV group and AAV+IRAK4 degrader PROTAC IRAK4 degrader-1 Cat. No.: HY-129966 (MedChemExpress) that was mixed with chow at 100 mg/kg and fed to mice 15 days prior to AAV injection. […] AAV capsid used in the study had LacZ transgene. All animal experiments were conducted in accordance with the Institutional Animal Care and Use Committees at Sanofi, Framingham. Submandibular bleeds were performed weekly, and necropsy was performed three weeks post AAV injection.
PBMC isolation and surface staining. 120 ul blood was collected in K2EDTA coated tubes. The blood was mixed with DBPS at 1:1 ration and pipetted into a separate tube containing Ficoll (GE17-5442-02) to ensure no mixing of the blood and Ficoll phases. The mixture was centrifuged at 2000 RPM for 25 minutes at room temperature (9 acceleration and no braking). The buffy coat containing the peripheral blood mononuclear cells (PBMCs) was collected, transferred to a new tube, and centrifuged for five minutes at 400 RCF. PBMCs were washed three times with phosphate buffered saline (PBS) containing 1% fetal bovine serum (FBS) or fetal calf serum (FCS) and counted. The PBMC cells thus obtained were stained with different antibodies to quantify percentage of different immune cell subsets in peripheral blood.
PBMC CD8 TEM and lacZ tetramer staining. The PBMC was isolated from ˜120 μl of mouse blood, and it was transferred to a 96-well U-bottom plate. […]

## Cn1c(=O)n(C2CCC(=O)NC2=O)c2cccc(C#CCOC3CCN(C[C@H]4CC[C@H](n5cc(NC(=O)c6cnn7ccc(N8C[C@H]9C[C@@H]8CO9)nc67)c(C(F)F)n5)CC4)CC3)c21 (some centres unmarked) [KT-474]
14 days post AAV injections
  LacZ tetramer positive (transgene LacZ specific CD8 T) cells in PBMCs: reduced significantly
21 days post AAV injections
  LacZ tetramer positive (transgene LacZ specific CD8 T) cells in spleen: reduced significantly
